US12152022B2, “N-[5-(aminosulfonyl)-4-methyl-1,3-thiazol-2-yl]-N-methyl-2-[4-(2-pyridinyl)-phenyl]-acetamide free base hemihydrate, methods of manufacture and uses thereof” (AiCuris Anti-Infective Cures GmbH, priority 2016, dated 2024)
Each block holds one compound with its values, some of them ahead of it.

Experiments:
herpes simplex virus = conditions: compared with N-[5-(amino-sulfonyl)-4-methyl-1,3-thiazol-2-yl]-N-methyl-2-[4-(2-pyridinyl)phenyl]acetamide; cited from earlier work
HSV-2 = conditions: once daily suppressive therapy; cited from earlier work
[1] = Saturated solubility in individual excipients; assay type: physicochemical; conditions: mean, n=3
Excerpt: Comparative Solubility of Free Base and Free Base Hemihydrate in Individual Excipients Saturated solubility (% w/w) of two forms of pritelivir (batches BXR2KVE for the free base and M023862-CA15-033 for pritelivir hemihydrate) in PEG 400 and propylene glycol, mean (range, n=3) are shown in Table 11 below.

[2] = Exposure of Form C to different relative humidity values, check by XRPD; assay type: physicochemical; conditions: <5% to 100% RH, sealed vials, 5 days
Excerpt: (§1) The hemihydrate Form C was isolated on larger scale. The starting material for the screening (Form B) was a monohydrate. Additionally a potential dihydrate (form L) was identified. […] To extend the exposure to different relative humidity (RH) values small vials with solid/saturated solutions were loaded with an open pan of Form C on top and the sealed vials kept for 5 days (see the data below for different humidity levels).

[3] = Hygroscopicity / DVS water sorption; assay type: physicochemical; conditions: for DVS: release and adsorption of water: 25° C., experiment time <600 min for Form C
Excerpt: FIG. 6A: weight vs. relative humidity, FIG. 6B: measurement over time.
as §1

[4] = pKa value by photometric titration; assay type: physicochemical
Procedure: (§2) The physical characterization of the free base hemihydrate referred to herein was performed using compendial methods as per European Pharmacopoeia (Ph. Eur.) and/or the U.S.
(§3) The identified forms were then further characterized by several methods: XRPD, Optical microscopy, ^1H-NMR, DSC, TGA, and DVS. The physical characterization of the free base hemihydrate referred to herein was performed using compendial methods as per European Pharmacopoeia (Ph. Eur.) and/or the U.S. Pharmacopeial Convention (USP).
(§4) General properties of N-[5-(aminosulfonyl)-4-methyl-1,3-thiazol-2-yl]-N-methyl-2-[4-(2-pyridinyl)-phenyl]-acetamide hemihydrate Table 9: […]

[5] = Octanol/water partition coefficient; assay type: physicochemical; conditions: 25° C.
Procedure: as §2, §3, §4

Structure (SMILES): C[C@H](Cn1cnc2c(N)ncnc21)OCP(=O)(O)O [Tenofovir]
IC50-values compared to pritelivir (herpes simplex virus): significantly higher

Structure (SMILES): CC(C)[C@H](N)C(=O)OCCOCn1cnc2c(=O)[nH]c(N)nc21 [valacyclovir]
Risk of transmission of genital herpes (HSV-2): significantly reduces the risk of transmission

Saturated solubility in PEG 400 ([1]; PEG 400, hemihydrate): 7.87 % w/w
Saturated solubility in propylene glycol ([1]; Propylene glycol, hemihydrate): 0.59 % w/w
Solid form by XRPD after humidity exposure [2]: all samples confirmed to be Form C
Hygroscopicity [3]: Not hygroscopic
DVS: release and adsorption of water ([3]; hemihydrate): almost no change
pKa value (photometric titration) [4]: 4.6
logP [5]: -0.0405
Structure (SMILES): Cc1nc(N(C)C(=O)Cc2ccc(-c3ccccn3)cc2)sc1S(N)(=O)=O [pritelivir hemihydrate, N-[5-(aminosulfonyl)-4-methyl-1,3-thiazol-2-yl]-N-methyl-2-[4-(2-pyridinyl)-phenyl]-acetamide free base hemihydrate]

Saturated solubility in PEG 400 ([1]; PEG 400): 3.30 % w/w
Saturated solubility in PEG 400 (free base*) ([1]; PEG 400, column marked *, asterisk not explained): 7.87 % w/w
Saturated solubility in propylene glycol ([1]; Propylene glycol): 0.20 % w/w
Saturated solubility in propylene glycol (free base*) ([1]; Propylene glycol, column marked *, asterisk not explained): 2.84 % w/w
Structure (SMILES): Cc1nc(N(C)C(=O)Cc2ccc(-c3ccccn3)cc2)sc1S(N)(=O)=O [pritelivir free base, N-[5-(aminosulfonyl)-4-methyl-1,3-thiazol-2-yl]-N-methyl-2-[4-(2-pyridinyl)-phenyl]-acetamide]
DVS: release and adsorption of water ([3]; listed as Form B): release and adsorb water more rapidly than Form C
